# From patent US10682382B2, “Composition for relieving pain, stress and insomnia” (priority 2014, dated 2020)
# What was measured:
# [1] = test system: carrageenan induced paw oedema; test: Carrageenan induced paw oedema in rats (topical application, plethysmographic paw volume); conditions: mean ± SD, n = 6; for Paw volume, carrageenan induced paw oedema: topical application 7 days + day 8; for Percentage change in carrageenan induced paw oedema (paw volume): ((Vt−Vo)/Vo)×100
# [2] = test system: REM sleep deprivation induced hyperalgesia; test: REM sleep deprivation induced hyperalgesia (modified flowerpot technique, hot plate method); type: in vivo, Male albino Wistar rats
# Description: The modified flowerpot technique was used to induce REM sleep deprivation. In this method, rats are placed on elevated platforms in a water tank for 96 hrs. During REM sleep muscle atonia occurs as a result of which when an animal enters REM sleep it falls from the platform into the water. Therefore the animal wakes up and climbs onto platform again. This method prevents REM sleep and permits other sleep stages.
# The paws of rats are very sensitive to heat at temperatures which are not damaging to the skin. The responses shown by rats placed on a hot plate are jumping, withdrawal of the paws and licking of the paws. This test is thus used to assess the pain threshold and the animal's response to mild painful stimuli.
# To induce sleep deprivation, an acrylic box (24 cm×18 cm×18 cm) with platforms of height 9 cm and 6 cm diameter was used. Water was filled, in the box upto a level of 1 cm below the platform. 6 animals were placed on each platform for 96 hrs. One platform was kept vacant to reduce immobilization stress. […] The responses of the animals to painful stimuli were observed (licking of paws, jumping, paw withdrawal) and the duration of time the animal could remain on the hot plate was recorded. […] One hour after application of the test substances, the animals were again subjected to the hot plate and the response was evaluated. […]
smiles,measurement,setting,value
O=C(O)Cc1ccccc1Nc1c(Cl)cccc1Cl [Diclofenac],"Paw volume, carrageenan induced paw oedema",[1]; 0 hr (immediately before carrageenan),0.23 ± 0.05
same,"Paw volume, carrageenan induced paw oedema",[1]; 2 hr after carrageenan,0.67 ± 0.06
same,Percentage change in carrageenan induced paw oedema (paw volume),[1]; 2 hr vs 0 hr,202.5 ± 79.48%
same,"Paw volume, carrageenan induced paw oedema",[1]; 5 hr after carrageenan,0.38 ± 0.05
same,Percentage change in carrageenan induced paw oedema (paw volume),[1]; 5 hr vs 0 hr,75 ± 82.15 %
same,"Paw volume, carrageenan induced paw oedema",[1]; 24 hr after carrageenan,0.20 ± 0.05
same,Percentage change in carrageenan induced paw oedema (paw volume),[1]; 24 hr vs 0 hr,−16.66 ± 25.81 %
same,Increase in paw withdrawal time,"[2]; after minus before formulation, hot plate",6.00
same,"Paw withdrawal time, before formulation","[2]; hot plate 50±2° C. after 96 hrs REM sleep deprivation, before application of test substance, cut-off 60 seconds, mean ± SD, n = 6",6.67 ± 3.33 s
